# In patent US20100317703A1, “METHOD FOR INHIBITING BRASSININ OXIDASE” (UNIVERSITY OF SASKATCHEWAN, priority 2009, published 2010):
# What was measured:
# [1] = system: brassinin oxidase (BO) activity in mycelial cultures of L. maculans; assay: Inducer effect of paldoxins: BO activity in cell-free extracts of treated mycelial cultures; type: cell-based, Leptosphaeria maculans; conditions: 24 h, control culture = 1.0
# Method: (§1) Liquid cultures of L. maculans (virulent isolate BJ-125, IBCN collection, AAFC) were handled as described in the literature.^13 Fungal spores were subcultured on V8 agar under continuous light at 23±1° C.; after 15 days, fungal spores were collected aseptically and stored at −20° C.^14 Liquid cultures were initiated by inoculating minimal media (100 mL)^15 with fungal spores at 10^7/mL in Erlenmeyer flasks, followed by incubation on a shaker under constant light at 23±1° C.
# (§2) For analysis of BO induction, 72 h old liquid cultures (20 mL) were co-incubated with test compounds (final concentrations in culture 0.10, 0.20, and 0.50 mM), and after an additional incubation for 24 h, the mycelia were separated from the culture broth by filtration.
# (§3) Frozen mycelia (0.3-1.4 g) from L. maculans were suspended in ice-cold extraction buffer (1 mL) and ground (mortar) for 5 min. The extraction buffer consisted of diethanolamine(DEA, 25 mM, pH 8.3), 5% (v/v) glycerol, D,L-dithiothreitol (DTT, 1 mM), and 1/200 (v/v) protease inhibitor cocktail (P-8215, Sigma-Aldrich Canada). The homogenate was centrifuged at 4° C. for 30 min at 50000 g. The resulting supernatant was used for determination of specific activity of BO. Protein concentrations were determined as described by Bradford^16 using the Coomassie Brilliant Blue method with BSA as a standard.
# (§4) The reaction mixture contained DEA (20 mM, pH 8.3), DTT (1 mM), 0.1% (v/v) Triton X-100, brassinin (1, 1.0 mM), phenazine (0.50 mM), and protein extract (50-100 μL) in a total volume of 500 μL. The reaction was carried out at 24° C. for 20 min. A control reaction was stopped by the addition of EtOAc (2 mL) at t=0. The product was extracted with EtOAc (2 mL) and concentrated to dryness. The extract was dissolved in CH3CN (200 μL) and analyzed by HPLC-DAD. The amounts of brassinin (1) and indole-3-carboxaldehyde (3) in the reaction assay were determined using calibration curves built with […]. One enzyme unit (U) is defined as the amount of the enzyme that catalyzes the conversion of one micromole of substrate per minute (μmol·min^−1=U).
# (§5) Mycelial cultures of L. maculans were incubated with the test compounds (0.10, 0.20, and 0.50 mM) for 24 h to evaluate potential induction of BO activity. The cultures were filtered, the mycelia were extracted with extraction buffer, and the resulting cell-free extracts were analyzed for BO activity using brassinin (1) as substrate. The total protein content of each cell-free extract was determined using a calibration curve built using BSA.
# brassinin oxidase (BO) [2] = assay: Inhibitory effect of paldoxins on purified BO (brassinin as substrate, HPLC-DAD); type: biochemical, Leptosphaeria maculans; conditions: for Inhibiton (%) of BO: brassinin 0.10 mM, purified BO, ± SD of four independent experiments
# Method: For purification of brassinin oxidase, 600 mL of 48 h old liquid cultures prepared as described above, were incubated with 3-phenylindole (19, 0.05 mM final concentration in cultures to induce BO) for an additional 24 h and then gravity filtered to separate mycelia from culture broth. The mycelia was stored at −20° C. up to 72 h and used to obtain protein extracts containing BO activity.
# as §4
# The purification of BO was performed in four steps as previously described.^17 The purified enzyme was used for screening test compounds for inhibitory activity. To determine potential inhibitors of BO, inhibition experiments were carried out using brassinin (1, 0.10 mM final concentration) and test compounds (0.10 and 0.30 mM final concentrations). Standard deviation values for assays were determined from four independent experiments.
# The inhibitory effects of test compounds on BO activity were tested at 0.10 mM and 0.30 mM using brassinin (1) as substrate (0.10 mM) and purified BO.
# [3] = system: mycelial cultures of L. maculans; assay: Antifungal activity: total protein content of cell-free extracts of treated mycelial cultures; type: cell-based, Leptosphaeria maculans; conditions: 24 h, control culture = 1.0
# Method: as §1, §2, §3, §5
# brassinin oxidase (BO) [4] = conditions: 0.30 mM; reference compound, cited from ref. 17; cited from earlier work
# [5] = 0.10 mM added to mycelial cultures
# [6] = 0.20 mM added to mycelial cultures
# [7] = 0.50 mM added to mycelial cultures
SMILES,"Relative Specific Activity of BO [1, 5]","Relative Specific Activity of BO [1, 6]","Relative Specific Activity of BO [1, 7]",Inhibiton (%) of BO (brassinin oxidase (BO) [2]; test compound 0.10 mM) [%],Inhibiton (%) of BO (brassinin oxidase (BO) [2]; test compound 0.30 mM) [%],"Relative Protein [3, 5]","Relative Protein [3, 6]","Relative Protein [3, 7]",other results
c1ccc2c(-c3nccs3)c[nH]c2c1 [Camalexin],4.5 ± 0.5,6.9±0.3,2.5 ± 0.1,30 ± 4,53 ± 4,0.28,0.24,0.10,"Inhibiton (%) of BO (brassinin oxidase (BO) [2]; test compound 0.30 mM, listed as Camalexin I(h)): 53 ± 7%; Inhibiton (%) of BO (brassinin oxidase (BO) [2]; test compound 0.30 mM, listed as camalexin): 53%"
CSC1=NCc2c([nH]c3ccccc23)S1 [Cyclobrassinin],,,,23 ± 6,37 ± 8,,,,
"Fc1ccc2[nH]cc(-c3nccs3)c2c1 [I(a), 5-Fluorocamalexin]",5.0 ± 0.2,4.9 ± 0.4,7.9 ± 0.6,47 ± 5,,0.30,0.23,0.19,"Inhibiton (%) of BO (brassinin oxidase (BO) [2]; test compound 0.30 mM, listed as 5-Fluorocamalexin I(a)): 63 ± 2%; Inhibiton (%) of BO (brassinin oxidase (BO) [2]; test compound 0.30 mM, listed as 5-fluorocamalexin I(a)): ca. 63%"
"Fc1ccc2c(-c3nccs3)c[nH]c2c1 [I(b), 6-Fluorocamalexin]",3.9 ± 0.1,4.0 ± 0.2,1.8 ± 0.3,29 ± 10,46,0.36,0.28,0.24,
"COc1ccc2[nH]cc(-c3nccs3)c2c1 [I(c), 5-Methoxycamalexin]",1.7 ± 0.3,5.8 ± 0.6,1.6 ± 0.3,51 ± 4,,0.28,0.24,0.13,"Inhibiton (%) of BO (brassinin oxidase (BO) [2]; test compound 0.30 mM, listed as 5-Methoxycamalexin I(c)): 72 ± 1%; Inhibiton (%) of BO (brassinin oxidase (BO) [2]; test compound 0.30 mM, listed as 5-methoxycamalexin I(c)): ca. 72%"
"COc1ccc2c(-c3nccs3)c[nH]c2c1 [I(d), 6-Methoxycamalexin]",2.3 ± 0.1,3.7 ± 0.2,4.0 ± 0.1,41 ± 6,,0.27,0.16,0.11,"Inhibiton (%) of BO (brassinin oxidase (BO) [2]; test compound 0.30 mM, listed as 6-Methoxycamalexin I(d)): 63 ± 5%; Inhibiton (%) of BO (brassinin oxidase (BO) [2]; test compound 0.30 mM, listed as 6-methoxycamalexin I(b)): ca. 63%"
"Fc1ccc2c(-c3ccccc3)c[nH]c2c1 [I(e), 6-Fluoro-3-phenylindole]",,,,11 ± 4,17 ± 6,,,,
c1ccc2cc(-c3cnsc3)ccc2c1 [I(g)],2.6 ± 0.2,8.5 ± 0.1,16.3 ± 3.3,,,0.26,0.17,0.16,
CSC(=S)NCc1cc2ccccc2[nH]1 [Isobrassinin],,,,11 ± 5,23 ± 6,,,,
"c1ccc2[nH]c(-c3cscn3)nc2c1 [Thiabendazole, reference compound]",1.9 ± 0.2,4.1 ± 0.2,4.9 ± 0.3,16 ± 3,25 ± 7,0.35,0.28,0.06,BO inhibitory activity (brassinin oxidase (BO) [4]): ca. 25%
"CSC(=S)NCc1c[nH]c2ccccc12 [brassinin, Brassinin]",,,,,,,,,Km (brassinin oxidase (BO) [2]; under the enzyme assay conditions): 150 µM
